Laboratory results: patent US20250171457A1, “NITROGEN-CONTAINING HETEROCYCLIC COMPOUND HAVING NRF2 ACTIVATION EFFECT” (CHUGAI SEIYAKU KABUSHIKI KAISHA, priority 2022, published 2025)

The compounds below were run on Nrf2 transcriptional activity (pARE-Luc reporter) in HepG2 cells (assay: In vitro Nrf2 transcriptional activity measurement by ARE-dependent reporter assay in HepG2 cell). Conditions: Homo sapiens; HepG2 cells transfected with pARE-Luc, 4 hours at 37° C.; luciferase activity of Example 1-54 or Example 17-23 at 3.75 μM defined as 100%.
Format: cell-based, human
Procedure, shortened: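 Luminescence readout (Bright-Glo) after 4 h, 37° C compound exposure of HepG2 cells carrying the ARE-luciferase vector pGL4.37. Each well converted to % response versus reference compound at 3.75 μM, and EC50 derived from dose-response curves.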

| SMILES | EC50 [nM] |
| --- | --- |
| Cn1cc(-c2cc(Cl)c(C(=O)N3COc4c(cccc4-c4cc(N5CC6CCC(C5)O6)c(C(=O)O)cc4F)C3)c(Cl)c2)cn1 [Compound 12-2, 4-[3-[2,6-Dichloro-4-(1-methylpyrazol-4-yl)benzoyl]-2,4-dihydro-1,3-benzoxazin-8-yl]-5-fluoro-2-(8-oxa-3-azabicyclo[3.2.1]octan-3-yl)benzoic acid] | 2.6 |
| COCCN1CC2CC(C1)N2c1cc(Cl)c(C(=O)N2COc3c(cccc3-c3cc(N4C5CCC4COC5)c(C(=O)O)cc3F)C2)c(Cl)c1 [Compound 7-10, 4-[3-[2,6-Dichloro-4-[3-(2-methoxyethyl)-3,6-diazabicyclo[3.1.1]heptan-6-yl]benzoyl]-2,4-dihydro-1,3-benzoxazin-8-yl]-5-fluoro-2-(3-oxa-8-azabicyclo[3.2.1]octan-8-yl)benzoic acid] | 27 |
| O=C(O)c1cc(F)c(-c2cccc3c2OCN(C(=O)c2c(Cl)cc(N4CC(OC5COC5)C4)cc2Cl)C3)cc1N1C2CCC1COC2 [Compound 6-7, 4-[3-[2,6-Dichloro-4-[3-(oxetan-3-yloxy)azetidin-1-yl]benzoyl]-2,4-dihydro-1,3-benzoxazin-8-yl]-5-fluoro-2-(3-oxa-8-azabicyclo[3.2.1]octan-8-yl)benzoic acid] | 5.7 |
| CCOc1cc(Cl)c(C(=O)N2COc3c(cccc3-c3cc(N4C5CCC4COC5)c(C(=O)O)cc3F)C2)c(Cl)c1 [Compound 4-39, 4-[3-(2,6-Dichloro-4-ethoxybenzoyl)-2,4-dihydro-1,3-benzoxazin-8-yl]-5-fluoro-2-(3-oxa-8-azabicyclo[3.2.1]octan-8-yl)benzoic acid] | 6.9 |
| Cn1nnc2cc(-c3cc(Cl)c(C(=O)N4COc5c(cccc5-c5cc(N6C7CCC6COC7)c(C(=O)O)cc5F)C4)c(Cl)c3)cnc21 [Compound 3-9, 4-[3-[2,6-Dichloro-4-(3-methyltriazolo[4,5-b]pyridin-6-yl)benzoyl]-2,4-dihydro-1,3-benzoxazin-8-yl]-5-fluoro-2-(3-oxa-8-azabicyclo[3.2.1]octan-8-yl)benzoic acid] | 10 |
| COC1CCC12CN(c1cc(Cl)c(C(=O)N3COc4c(cccc4-c4cc(N5C6CCC5COC6)c(C(=O)O)cc4F)C3)c(Cl)c1)C2 (racemic) [Compound 6-13, 4-[3-[2,6-Dichloro-4-(rac-7-methoxy-2-azaspiro[3.3]heptan-2-yl)benzoyl]-2,4-dihydro-1,3-benzoxazin-8-yl]-5-fluoro-2-(3-oxa-8-azabicyclo[3.2.1]octan-8-yl)benzoic acid] | 3.8 |
| O=C(O)c1cc(F)c(-c2cccc3c2OCN(C(=O)c2c(Cl)cc(N4CC5(CC(OC6CC6)C5)C4)cc2Cl)C3)cc1N1C2CCC1COC2 [Compound 11-10, 4-[3-[2,6-Dichloro-4-(6-cyclopropyloxy-2-azaspiro[3.3]heptan-2-yl)benzoyl]-2,4-dihydro-1,3-benzoxazin-8-yl]-5-fluoro-2-(3-oxa-8-azabicyclo[3.2.1]octan-8-yl)benzoic acid] | 3.8 |
| O=C(O)c1cc(F)c(-c2cccc3c2OCN(C(=O)c2c(Cl)cc(N4CCN(C5COC5)C5CC54)cc2Cl)C3)cc1N1C2CCC1COC2 (stereo not drawn) [Compound 9-15, 4-[3-[2,6-Dichloro-4-[5-(oxetan-3-yl)-2,5-diazabicyclo[4.1.0]heptan-2-yl]benzoyl]-2,4-dihydro-1,3-benzoxazin-8-yl]-5-fluoro-2-(3-oxa-8-azabicyclo[3.2.1]octan-8-yl)benzoic acid] | 14 |
| CN(c1cc(-c2cccc3c2OCN(C(=O)c2c(Cl)cc(-c4cnn(C)c4)cc2Cl)C3)c(F)cc1C(=O)O)C1(C)COC1 [Compound 16-14, 4-[3-[2,6-Dichloro-4-(1-methylpyrazol-4-yl)benzoyl]-2,4-dihydro-1,3-benzoxazin-8-yl]-5-fluoro-2-[methyl-(3-methyloxetan-3-yl)amino]benzoic acid] | 6.8 |
